# Results: PubChem BioAssay (NCI)
# Several values for one entry are separate records, joined by “and”; a condition that tells them apart may be missing. Equal entries are not always repeated.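 A five-concentration, 48-hour dose response in 96-well plates underlies each endpoint, interpolated linearly between surrounding concentrations. The concentration for 50% growth inhibition is given as GI50. TGI marks complete inhibition of growth.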
# Tested on: HCT-116 colon
# Assay: inhibition of tumour cell growth, NCI panel, 48 h
SMILES,GI50 [µM],TGI [µM]
CC[CH2][Sn]([CH2]CC)([O]C(=O)c1cccnc1SC)[O][Sn]([CH2]CC)([CH2]CC)[O]C(=O)c1cccnc1SC,0.452,1.48
CC(C)c1nc(CN(C)C(=O)N[C@H](C(=O)N[C@@H](Cc2ccccc2)C[C@H](O)[C@H](Cc2ccccc2)NC(=O)OCc2cncs2)C(C)C)cs1,19.9,50.1

# Tested on: OVCAR-5 ovarian
# Assay: inhibition of tumour cell growth, NCI panel, 48 h
SMILES,GI50,TGI
CN1CCN(C(=O)OCc2nc3c(N4CCOCC4)nc(Cl)nc3n2C)CC1,1.6 µM,3.54 µM
COC(=O)[C@]12CC[C@@H](C)[C@H](C)[C@@H]1C1=CC[C@@H]3[C@@]4(C)C/C(=N\O)[C@H](O)[C@@]5(C)COC(=C45)C[C@@]3(C)[C@]1(C)CC2,15.9 µM,33.6 µM
Oc1c(CN2CCC(N3CCCCC3)CC2)cc(Cc2cc(CN3CCC(N4CCCCC4)CC3)c(O)c3ncccc23)c2cccnc12,2.74 µM,20.3 µM
Cn1c2ccccc2c2c(-c3ccccc3)[n+]3ccncc3nc21,> 100 µM,> 100 µM
COc1ccc(-c2cnnc3c(-c4cccc(C(F)(F)F)c4)cnn23)cc1,> 100 µM,> 100 µM
NC(=O)c1ccc(I)c(N)c1,> 100 µM,> 100 µM
CC/C(=C(/c1ccc(O)cc1)c1ccc(OCCNC)cc1)c1ccccc1,2.37 µM,6.25 µM
O=C(/C(Br)=C/c1ccccc1)c1ccccc1,3.21 µM,9.22 µM
C=C1C(=O)O[C@H]2[C@H]1CC/C(Cn1cc(-c3ccc(OC)cc3)nn1)=C\CC[C@@]1(C)O[C@@H]21,1.71 µM,3.66 µM
O=C1CCCCN1CCCCC#Cc1ccccc1C#Cc1ccc([N+](=O)[O-])cc1,5.25 µM,18.7 µM
CCOc1cc2c(Cl)ncnc2c(OCC)c1OCC,17.9 µM,33.4 µM
Oc1ccc2ccccc2c1N=Nc1nccs1,5.61 µM,25.6 µM
CC(=O)OCCN1c2ccccc2Sc2cnccc21,,> 10 µM
Cn1c(=O)c2[nH]c(SCc3ccccn3)nc2n(C)c1=S,,> 100 µM
COc1cc2c(c(O)c1Br)C(=O)c1c(O)cc(C[C@H](C)O)cc1[C@H]2[C@H]1c2cc(C[C@H](C)O)cc(O)c2C(=O)c2c1cc(OC)c(Br)c2O,11.1 µM and 17.1 µM,27.4 µM and 46.5 µM
COc1ccc(-c2cc(=O)c3ccc(O)cc3o2)cc1OC,,> 100 µM
CC[C@]1(O)C[C@@H]2CN(CCc3c([nH]c4ccccc34)[C@@](C(=O)OC)(c3cc4c(cc3OC)N(C)[C@H]3[C@@](O)(C(=O)OC)[C@H](OC(C)=O)[C@]5(CC)C=CCN6CC[C@]43[C@@H]65)C2)C1,< 0.01 µM,87.7 µM
N#CSc1c[nH]c2cccc(/C=C/C(=O)/C=C(/C=C/c3cccc4[nH]cc(SC#N)c34)OB(F)F)c12,1.81 µM,6.91 µM
C=CC(=O)N1CC2(CCN(c3nc(OC4CCN(CCCOC)CC4)nc4c(OCC(F)(F)F)c(-c5c(C)ccc6[nH]ncc56)c(C5CC5)cc34)CC2)C1,5.31 µM,18 µM
FC(F)(F)c1cccc(Nc2nccc(-c3cnn4nc(-c5ccccc5)ccc34)n2)c1,> 22.9 µM,> 25 µM
CC[C@@H]1C(=O)N(C)c2cnc(Nc3ccc(C(=O)NC4CCN(C)CC4)cc3OC)nc2N1C1CCCC1,0.00408 µM and < 0.01 µM,> 10 µM and 11.8 µM
C=C1C(=O)O[C@H]2[C@H]1CC/C(COC(=O)c1ccc3ccccc3c1)=C\CC[C@@]1(C)O[C@@H]21,1.59 µM,3.57 µM
CC[CH2][Sn]([CH2]CC)([O]C(=O)c1cccnc1SC)[O][Sn]([CH2]CC)([CH2]CC)[O]C(=O)c1cccnc1SC,2.09 µM,3.64 µM
CC(C)c1nc(CN(C)C(=O)N[C@H](C(=O)N[C@@H](Cc2ccccc2)C[C@H](O)[C@H](Cc2ccccc2)NC(=O)OCc2cncs2)C(C)C)cs1,28.2 µM,71.5 µM

# Tested on: RPMI-8226 leukemia
# Assay: inhibition of tumour cell growth, NCI panel, 48 h
SMILES,GI50,TGI
CN1CCN(C(=O)OCc2nc3c(N4CCOCC4)nc(Cl)nc3n2C)CC1,0.33 µM,1.63 µM
COC(=O)[C@]12CC[C@@H](C)[C@H](C)[C@@H]1C1=CC[C@@H]3[C@@]4(C)C/C(=N\O)[C@H](O)[C@@]5(C)COC(=C45)C[C@@]3(C)[C@]1(C)CC2,2.67 µM,6.82 µM
Oc1c(CN2CCC(N3CCCCC3)CC2)cc(Cc2cc(CN3CCC(N4CCCCC4)CC3)c(O)c3ncccc23)c2cccnc12,1.86 µM,7.22 µM
Cn1c2ccccc2c2c(-c3ccccc3)[n+]3ccncc3nc21,36.1 µM,> 100 µM
COc1ccc(-c2cnnc3c(-c4cccc(C(F)(F)F)c4)cnn23)cc1,2.72 µM,> 100 µM
NC(=O)c1ccc(I)c(N)c1,> 100 µM,> 100 µM
CC/C(=C(/c1ccc(O)cc1)c1ccc(OCCNC)cc1)c1ccccc1,2.05 µM,4.64 µM
O=C(/C(Br)=C/c1ccccc1)c1ccccc1,2.41 µM,7.07 µM
C=C1C(=O)O[C@H]2[C@H]1CC/C(Cn1cc(-c3ccc(OC)cc3)nn1)=C\CC[C@@]1(C)O[C@@H]21,1.87 µM,5.15 µM
O=C1CCCCN1CCCCC#Cc1ccccc1C#Cc1ccc([N+](=O)[O-])cc1,0.408 µM,3.39 µM
CCOc1cc2c(Cl)ncnc2c(OCC)c1OCC,3.29 µM,20.6 µM
Oc1ccc2ccccc2c1N=Nc1nccs1,0.187 µM,
CC(=O)OCCN1c2ccccc2Sc2cnccc21,,> 10 µM
COc1ccc(/C(COc2c(-c3ccccc3)oc3ccccc3c2=O)=N\O)cc1,21.5 µM,> 50 µM
Cn1c(=O)c2[nH]c(SCc3ccccn3)nc2n(C)c1=S,,> 100 µM
COc1cc2c(c(O)c1Br)C(=O)c1c(O)cc(C[C@H](C)O)cc1[C@H]2[C@H]1c2cc(C[C@H](C)O)cc(O)c2C(=O)c2c1cc(OC)c(Br)c2O,2.19 µM and 3 µM,67.5 µM and 11.4 µM
COc1ccc(-c2cc(=O)c3ccc(O)cc3o2)cc1OC,,> 100 µM
CC[C@]1(O)C[C@@H]2CN(CCc3c([nH]c4ccccc34)[C@@](C(=O)OC)(c3cc4c(cc3OC)N(C)[C@H]3[C@@](O)(C(=O)OC)[C@H](OC(C)=O)[C@]5(CC)C=CCN6CC[C@]43[C@@H]65)C2)C1,< 0.01 µM,8.54 µM
N#CSc1c[nH]c2cccc(/C=C/C(=O)/C=C(/C=C/c3cccc4[nH]cc(SC#N)c34)OB(F)F)c12,0.351 µM,30 µM
C=CC(=O)N1CC2(CCN(c3nc(OC4CCN(CCCOC)CC4)nc4c(OCC(F)(F)F)c(-c5c(C)ccc6[nH]ncc56)c(C5CC5)cc34)CC2)C1,2.14 µM,5.81 µM
FC(F)(F)c1cccc(Nc2nccc(-c3cnn4nc(-c5ccccc5)ccc34)n2)c1,12.9 µM,> 25 µM
CC[C@@H]1C(=O)N(C)c2cnc(Nc3ccc(C(=O)NC4CCN(C)CC4)cc3OC)nc2N1C1CCCC1,0.0198 µM and 0.0395 µM,1.69 µM and 1.91 µM
C=C1C(=O)O[C@H]2[C@H]1CC/C(COC(=O)c1ccc3ccccc3c1)=C\CC[C@@]1(C)O[C@@H]21,0.281 µM,0.869 µM
CC[CH2][Sn]([CH2]CC)([O]C(=O)c1cccnc1SC)[O][Sn]([CH2]CC)([CH2]CC)[O]C(=O)c1cccnc1SC,0.139 µM,> 100 µM
CC(C)c1nc(CN(C)C(=O)N[C@H](C(=O)N[C@@H](Cc2ccccc2)C[C@H](O)[C@H](Cc2ccccc2)NC(=O)OCc2cncs2)C(C)C)cs1,7.9 µM,27.7 µM

# Tested on: T-47D breast
# Assay: inhibition of tumour cell growth, NCI panel, 48 h
SMILES,GI50 [µM],TGI [µM]
CN1CCN(C(=O)OCc2nc3c(N4CCOCC4)nc(Cl)nc3n2C)CC1,2.01,4.99
COC(=O)[C@]12CC[C@@H](C)[C@H](C)[C@@H]1C1=CC[C@@H]3[C@@]4(C)C/C(=N\O)[C@H](O)[C@@]5(C)COC(=C45)C[C@@]3(C)[C@]1(C)CC2,9.3,25.7
Oc1c(CN2CCC(N3CCCCC3)CC2)cc(Cc2cc(CN3CCC(N4CCCCC4)CC3)c(O)c3ncccc23)c2cccnc12,0.51,4.8
Cn1c2ccccc2c2c(-c3ccccc3)[n+]3ccncc3nc21,55.3,> 100
COc1ccc(-c2cnnc3c(-c4cccc(C(F)(F)F)c4)cnn23)cc1,6.37,> 100
NC(=O)c1ccc(I)c(N)c1,> 100,> 100
CC/C(=C(/c1ccc(O)cc1)c1ccc(OCCNC)cc1)c1ccccc1,1.34,4.68
O=C(/C(Br)=C/c1ccccc1)c1ccccc1,1.82,4.71
C=C1C(=O)O[C@H]2[C@H]1CC/C(Cn1cc(-c3ccc(OC)cc3)nn1)=C\CC[C@@]1(C)O[C@@H]21,1.43,3.08
O=C1CCCCN1CCCCC#Cc1ccccc1C#Cc1ccc([N+](=O)[O-])cc1,3.52,18.7
CCOc1cc2c(Cl)ncnc2c(OCC)c1OCC,6.11,22.8
